# Assay results from patent US9440957B2, “Compounds and compositions for modulating EGFR Activity” (Novartis AG, priority 2012, dated 2016).
# Where two headings read alike, the source gives them in different places.
# Legend:
# [1] = biological target: T1, EGFR(L858R/T790M) (Homo sapiens, UniProt P00533, L858R/T790M); experiment: EGFR biochemical assay (HTRF), IC50 determinations
# T1 construct: purchased from Carna (GST-a.a. 669-1210)
# Protocol: All EGFR biochemical assays were carried out by HTRF method. […] The substrate peptide Biotin-TK-peptide was purchased from Cis-Bio. […] All reactions were carried out at room temperature in white ProxiPlate™ 384-well Plus plates (PerkinElmer) and were quenched with 5 μL of 0.2 M EDTA at 60 min. Five L of the detection reagents (2.5 ng PT66K and 0.05 μg SAXL per well) were added, the plates were incubated at room temperature for 1 h and then read in EnVision reader. […] For no-preincubation condition, the compounds were added to the assay solution containing ATP and peptide, and the reaction was initiated by addition of enzyme. For pre-incubation conditions, the compounds were added to the assay solution containing enzyme and peptide, and pre-incubated at room temperature for desired period of time, then the reaction was initiated by addition of ATP.
# [2] = biological target: human EGFR WT (NIH/3T3 cells, EGF-induced) (Homo sapiens, UniProt P00533); experiment: EGFR target modulation in engineered NIH/3T3 cell lines (phospho-EGFR Y1068 AlphaLISA), EGFR WT; format: cell-based; conditions: engineered NIH/3T3 cells, read-out: NIH3T3 IC50 (μM) EGFR (WT)
# Chain of human EGFR WT (NIH/3T3 cells, EGF-induced) (P00533 25-1210): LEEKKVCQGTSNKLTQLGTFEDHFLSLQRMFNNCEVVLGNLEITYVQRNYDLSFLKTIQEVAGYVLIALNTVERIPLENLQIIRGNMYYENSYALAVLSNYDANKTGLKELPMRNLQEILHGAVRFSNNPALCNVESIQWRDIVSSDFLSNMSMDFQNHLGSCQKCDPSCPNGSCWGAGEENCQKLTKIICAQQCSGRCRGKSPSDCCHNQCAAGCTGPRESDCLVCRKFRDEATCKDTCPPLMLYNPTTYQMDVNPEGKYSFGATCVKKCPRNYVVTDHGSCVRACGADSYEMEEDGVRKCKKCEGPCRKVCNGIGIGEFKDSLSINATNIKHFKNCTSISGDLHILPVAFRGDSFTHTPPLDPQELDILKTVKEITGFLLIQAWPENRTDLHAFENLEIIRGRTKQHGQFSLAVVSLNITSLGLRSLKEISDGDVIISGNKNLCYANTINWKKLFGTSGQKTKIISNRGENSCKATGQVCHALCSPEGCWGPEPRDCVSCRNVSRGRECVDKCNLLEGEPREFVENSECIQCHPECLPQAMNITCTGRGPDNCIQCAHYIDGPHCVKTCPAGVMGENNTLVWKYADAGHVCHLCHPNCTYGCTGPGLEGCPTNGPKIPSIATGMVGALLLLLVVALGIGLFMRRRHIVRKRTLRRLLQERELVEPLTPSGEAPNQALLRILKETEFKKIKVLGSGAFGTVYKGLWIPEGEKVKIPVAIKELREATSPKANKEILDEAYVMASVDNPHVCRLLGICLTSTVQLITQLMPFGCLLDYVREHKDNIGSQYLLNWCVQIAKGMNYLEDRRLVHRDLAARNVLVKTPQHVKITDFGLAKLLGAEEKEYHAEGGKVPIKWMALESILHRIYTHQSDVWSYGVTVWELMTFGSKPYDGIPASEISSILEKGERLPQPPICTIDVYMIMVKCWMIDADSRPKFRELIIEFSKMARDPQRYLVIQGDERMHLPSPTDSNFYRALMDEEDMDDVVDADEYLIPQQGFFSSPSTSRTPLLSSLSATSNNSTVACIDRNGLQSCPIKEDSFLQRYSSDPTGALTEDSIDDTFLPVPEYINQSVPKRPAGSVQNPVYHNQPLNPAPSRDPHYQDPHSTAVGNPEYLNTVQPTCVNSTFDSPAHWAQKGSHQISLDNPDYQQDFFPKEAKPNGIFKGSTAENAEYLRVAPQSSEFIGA
# Protocol: (§1) EGFR Target Modulation in Engineered NIH/3T3 Cell Lines Tissue Culture.
# (§2) The cells were harvested with 0.05% Trypsin/EDTA (Hyclone #SH30236.01), re-suspended in 5% FBS/DMEM Pen/Strep without Puromycin and plated at 9,000 cells per well in 50 μl of media in a 384-well black plate with clear bottoms (Greiner #789068G). The cells were allowed to incubate overnight in a 37° C., 5% CO2 humidified tissue culture incubator. A 12-point test compound curve was prepared by serial diluting a 10 μM stock 1:3 in DMSO in a 384-well compound plate (Greiner #789201L). The serial diluted compounds were transferred to the plate containing cells by using a 50 nl Pin Head device (Perkin Elmer) and the cells were placed back in the incubator for 3 hours. Only the EGFR WT-expressing cells were induced with 50 ng/ml EGF (Preprotech #AF-100-15) for 5 minutes before lysis. […] The plates were shaken at 4° C. for 5 minutes with foil top at maximum speed. […] The plates were sealed with a foil top and frozen at −80° C. and thawed when needed.
# (§3) The frozen aliquots were thawed and briefly centrifuged. All antibodies and beads were diluted in 1× AlphaLISA HiBlock Buffer (PE #AL004C). […] Goat anti-total EGFR (R&D Systems #AF231) was added and allowed to equilibrate for 1 hour at room temperature at 1 nM final concentration.
# (§4) With these parameters, the IC50's for each compound in each cell line was calculated using non-linear curve fitting analysis.
# [3] = biological target: human EGFR L858R (NIH/3T3 cells) (Homo sapiens, UniProt P00533, L858R); experiment: EGFR target modulation in engineered NIH/3T3 cell lines (phospho-EGFR Y1068 AlphaLISA), EGFR L858R; format: cell-based; conditions: engineered NIH/3T3 cells, read-out: NIH3T3 IC50 (μM) EGFR (L858R)
# Chain of human EGFR L858R (NIH/3T3 cells) (P00533 25-1210 L858R): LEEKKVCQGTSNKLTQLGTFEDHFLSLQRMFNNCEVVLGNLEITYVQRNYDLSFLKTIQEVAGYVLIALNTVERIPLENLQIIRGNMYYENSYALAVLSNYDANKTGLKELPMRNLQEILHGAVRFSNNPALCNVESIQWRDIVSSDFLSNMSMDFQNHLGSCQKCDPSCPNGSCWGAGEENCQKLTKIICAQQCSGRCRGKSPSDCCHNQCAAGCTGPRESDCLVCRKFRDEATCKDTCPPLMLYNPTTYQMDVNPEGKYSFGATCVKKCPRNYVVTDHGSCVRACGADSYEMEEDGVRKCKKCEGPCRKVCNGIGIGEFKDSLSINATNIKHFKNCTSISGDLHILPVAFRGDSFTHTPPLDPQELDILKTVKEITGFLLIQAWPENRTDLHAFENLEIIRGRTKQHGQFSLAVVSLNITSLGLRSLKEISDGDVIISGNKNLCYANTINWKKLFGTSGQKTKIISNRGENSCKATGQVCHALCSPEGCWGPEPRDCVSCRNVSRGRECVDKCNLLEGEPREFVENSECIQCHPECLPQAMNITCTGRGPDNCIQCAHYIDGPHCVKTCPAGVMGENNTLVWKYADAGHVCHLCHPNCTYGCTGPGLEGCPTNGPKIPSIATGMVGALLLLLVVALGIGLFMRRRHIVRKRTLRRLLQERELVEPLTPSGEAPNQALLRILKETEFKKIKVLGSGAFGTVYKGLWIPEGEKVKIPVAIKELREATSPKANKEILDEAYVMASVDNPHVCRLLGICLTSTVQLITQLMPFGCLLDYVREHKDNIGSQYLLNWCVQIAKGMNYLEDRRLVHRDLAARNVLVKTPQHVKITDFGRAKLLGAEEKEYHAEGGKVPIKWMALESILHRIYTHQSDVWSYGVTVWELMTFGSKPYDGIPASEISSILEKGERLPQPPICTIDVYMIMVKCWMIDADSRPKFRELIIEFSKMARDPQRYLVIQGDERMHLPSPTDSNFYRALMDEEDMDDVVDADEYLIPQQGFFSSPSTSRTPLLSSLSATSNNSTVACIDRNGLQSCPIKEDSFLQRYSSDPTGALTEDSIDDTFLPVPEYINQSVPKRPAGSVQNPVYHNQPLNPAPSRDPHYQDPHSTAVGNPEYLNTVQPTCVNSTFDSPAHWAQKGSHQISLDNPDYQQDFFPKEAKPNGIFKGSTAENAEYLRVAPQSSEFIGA
# Protocol: as §1, §2, §3, §4
# [4] = biological target: human EGFR L858R/T790M (NIH/3T3 cells) (Homo sapiens, UniProt P00533, L858R/T790M); experiment: EGFR target modulation in engineered NIH/3T3 cell lines (phospho-EGFR Y1068 AlphaLISA), EGFR L858R/T790M; format: cell-based; conditions: engineered NIH/3T3 cells, read-out: NIH3T3 IC50 (μM) EGFR (L858R/T790M)
# Chain of human EGFR L858R/T790M (NIH/3T3 cells) (P00533 25-1210 T790M/L858R): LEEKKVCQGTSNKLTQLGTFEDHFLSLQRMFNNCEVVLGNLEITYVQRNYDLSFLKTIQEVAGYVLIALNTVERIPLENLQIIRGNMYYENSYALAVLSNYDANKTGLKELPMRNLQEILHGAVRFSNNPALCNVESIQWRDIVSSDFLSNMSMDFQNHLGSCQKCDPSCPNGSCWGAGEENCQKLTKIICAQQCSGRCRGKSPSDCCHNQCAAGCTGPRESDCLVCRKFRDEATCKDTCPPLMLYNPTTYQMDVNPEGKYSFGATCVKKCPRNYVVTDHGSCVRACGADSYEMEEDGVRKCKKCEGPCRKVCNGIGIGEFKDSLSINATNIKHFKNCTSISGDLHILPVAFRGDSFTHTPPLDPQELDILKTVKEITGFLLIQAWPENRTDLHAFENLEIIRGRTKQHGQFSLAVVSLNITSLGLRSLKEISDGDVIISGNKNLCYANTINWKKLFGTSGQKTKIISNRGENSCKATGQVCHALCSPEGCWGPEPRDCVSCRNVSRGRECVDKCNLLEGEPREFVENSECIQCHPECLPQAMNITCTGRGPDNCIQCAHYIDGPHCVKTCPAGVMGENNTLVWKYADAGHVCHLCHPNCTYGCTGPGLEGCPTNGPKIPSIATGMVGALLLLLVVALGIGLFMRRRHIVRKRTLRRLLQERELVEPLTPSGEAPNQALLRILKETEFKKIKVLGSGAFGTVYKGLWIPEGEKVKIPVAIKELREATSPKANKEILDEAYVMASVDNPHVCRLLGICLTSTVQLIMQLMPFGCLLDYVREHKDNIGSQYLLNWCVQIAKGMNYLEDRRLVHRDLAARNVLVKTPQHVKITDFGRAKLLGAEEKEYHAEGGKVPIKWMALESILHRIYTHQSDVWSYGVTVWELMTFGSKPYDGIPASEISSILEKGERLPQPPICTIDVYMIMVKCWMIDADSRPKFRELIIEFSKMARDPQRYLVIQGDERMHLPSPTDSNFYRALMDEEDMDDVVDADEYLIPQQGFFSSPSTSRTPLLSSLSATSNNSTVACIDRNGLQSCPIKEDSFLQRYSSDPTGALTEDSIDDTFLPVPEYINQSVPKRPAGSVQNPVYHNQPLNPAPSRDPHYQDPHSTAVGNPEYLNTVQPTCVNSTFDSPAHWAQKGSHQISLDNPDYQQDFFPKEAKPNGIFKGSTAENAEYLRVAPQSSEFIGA
# Protocol: as §1, §2, §3, §4
# [5] = EGFR (L858R/T790M) with 90 min pre-incubation, read-out: IC50 (μM) Column B
# [6] = EGFR (L858R/T790M) with no pre-incubation, read-out: IC50 (μM) Column A
# T1 sequence (P00533 669-1210 T790M/L858R): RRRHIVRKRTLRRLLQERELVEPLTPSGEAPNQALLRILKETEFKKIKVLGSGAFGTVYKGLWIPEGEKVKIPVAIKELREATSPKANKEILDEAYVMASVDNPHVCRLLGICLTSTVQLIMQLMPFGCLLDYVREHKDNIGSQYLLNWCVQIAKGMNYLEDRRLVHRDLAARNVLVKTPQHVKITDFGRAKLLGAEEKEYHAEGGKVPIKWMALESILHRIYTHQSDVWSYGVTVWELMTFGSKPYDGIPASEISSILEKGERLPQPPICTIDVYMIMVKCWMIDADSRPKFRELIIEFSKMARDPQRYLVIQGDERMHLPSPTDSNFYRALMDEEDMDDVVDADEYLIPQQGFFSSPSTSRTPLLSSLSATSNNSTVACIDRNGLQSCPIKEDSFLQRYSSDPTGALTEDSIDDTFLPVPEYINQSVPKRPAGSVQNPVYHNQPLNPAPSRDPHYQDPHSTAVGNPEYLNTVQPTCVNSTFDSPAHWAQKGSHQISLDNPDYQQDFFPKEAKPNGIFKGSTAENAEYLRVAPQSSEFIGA
SMILES,"IC50 [1, 5] [µM]","IC50 [1, 6] [µM]",IC50 [2] [µM],IC50 [3] [µM],IC50 [4] [µM]
C=CC(=O)N1CCOCC(n2c(NC(=O)c3cccc(C(F)(F)F)c3)nc3cccc(C)c32)C1 (stereo not shown) [Example 17-14],0.005,0.033,1.08,0.016,0.003
C=CC(=O)N1CCCC[C@@H](n2c(NC(=O)c3cccc(C(F)(F)F)c3)nc3cccc(Cl)c32)C1 [Example 17-18],< 0.001,0.014,2.48,0.02,0.004
CC#CC(=O)N1CCCCC(n2c(NC(=O)c3cccc(C(F)(F)F)c3)nc3cccc(C)c32)C1 (stereo not shown) [Example 17-19],0.007,0.33,> 10,0.33,0.044
C/C=C/C(=O)N1CCCCC(n2c(NC(=O)c3cccc(C(F)(F)F)c3)nc3cccc(C)c32)C1 (stereo not shown) [Example 17-20],0.032,0.43,> 10,0.75,0.073
Cc1cccc2nc(NC(=O)c3cccc(F)c3)n(C3CCCCN(C(=O)/C=C/CN(C)C)C3)c12 (stereo not shown) [Example 17-21],< 0.001,0.005,0.32,0.007,0.004
Cc1cccc2nc(NC(=O)c3cc(F)cc(F)c3)n(C3CCCCN(C(=O)/C=C/CN(C)C)C3)c12 (stereo not shown) [Example 17-22],< 0.001,0.003,0.271,0.004,0.002
Cc1cccc2nc(NC(=O)c3cccnc3)n(C3CCCCN(C(=O)/C=C/CN(C)C)C3)c12 (stereo not shown) [Example 17-23],< 0.001,0.003,0.149,0.004,0.003
Cc1cccc2nc(NC(=O)c3cccc(Cl)c3F)n(C3CCCCN(C(=O)/C=C/CN(C)C)C3)c12 (stereo not shown) [Example 17-31],< 0.001,0.016,0.75,0.019,0.005
Cc1cccc2nc(NC(=O)c3ccc(F)c(Cl)c3F)n(C3CCCCN(C(=O)/C=C/CN(C)C)C3)c12 (stereo not shown) [Example 17-32],< 0.001,0.014,0.206,0.007,0.004
Cc1cccc2nc(NC(=O)c3ccccn3)n(C3CCCCN(C(=O)/C=C/CN(C)C)C3)c12 (stereo not shown) [Example 17-34],0.038,1.05,> 10,0.53,0.221
Cc1cccc2nc(NC(=O)c3ncccn3)n(C3CCCCN(C(=O)/C=C/CN(C)C)C3)c12 (stereo not shown) [Example 17-36],0.35,10.6,> 10,3.5,2.96
Cc1cccc2nc(NC(=O)c3cnccn3)n(C3CCCCN(C(=O)/C=C/CN(C)C)C3)c12 (stereo not shown) [Example 17-38],0.006,0.117,1.92,0.093,0.049
Cc1cccc2nc(NC(=O)c3cccnn3)n(C3CCCCN(C(=O)/C=C/CN(C)C)C3)c12 (stereo not shown) [Example 17-39],0.007,0.12,5.2,0.221,0.072
Cc1cccc(C(=O)Nc2nc3cccc(C)c3n2C2CCCCN(C(=O)/C=C/CN(C)C)C2)c1 (stereo not shown) [Example 17-41],< 0.001,0.008,0.44,0.012,0.004
Cc1cccc2nc(NC(=O)c3cccc(Cl)c3)n(C3CCCCN(C(=O)/C=C/CN(C)C)C3)c12 (stereo not shown) [Example 17-43],< 0.001,0.006,0.48,0.014,0.004
COc1cccc(C(=O)Nc2nc3cccc(C)c3n2C2CCCCN(C(=O)/C=C/CN(C)C)C2)c1 (stereo not shown) [Example 17-44],< 0.001,0.007,0.39,0.015,0.003

SMILES,"IC50 [1, 5] [µM]","IC50 [1, 6] [µM]",IC50 [2] [µM],IC50 [3] [µM],IC50 [4] [µM]
Cc1cccc2nc(NC(=O)c3ccn(C)c(=O)c3)n(C3CCCCN(C(=O)/C=C/CN(C)C)C3)c12 (stereo not shown) [Example 17-49],0.001,0.029,0.33,0.006,0.027
Cc1cccc2nc(NC(=O)c3ccnc(N(C)C)c3)n(C3CCCCN(C(=O)/C=C/CN(C)C)C3)c12 (stereo not shown) [Example 17-50],< 0.001,0.009,0.086,0.005,0.009
Cc1cccc2nc(NC(=O)c3ccc4nccn4c3)n(C3CCCCN(C(=O)/C=C/CN(C)C)C3)c12 (stereo not shown) [Example 17-55],< 0.001,0.007,0.022,0.002,0.003
Cc1cccc2nc(NC(=O)c3ccco3)n(C3CCCCN(C(=O)/C=C/CN(C)C)C3)c12 (stereo not shown) [Example 17-56],0.002,0.02,0.263,0.017,0.008
Cc1cccc2nc(NC(=O)c3ccnc(N4CCCCC4)c3)n(C3CCCCN(C(=O)/C=C/CN(C)C)C3)c12 (stereo not shown) [Example 17-57],< 0.001,< 0.001,0.02,< 0.001,0.002
Cc1cc(C(=O)Nc2nc3cccc(C)c3n2C2CCCCN(C(=O)/C=C/CN(C)C)C2)oc1C (stereo not shown) [Example 17-59],0.006,0.105,0.37,0.02,0.019
Cc1cccc2nc(NC(=O)c3ccnc(C(C)(C)C)c3)n(C3CCCCN(C(=O)/C=C/CN(C)C)C3)c12 (stereo not shown) [Example 17-61],< 0.001,0.004,0.011,< 0.001,0.003
Cc1ncc(C(=O)Nc2nc3cccc(C)c3n2C2CCCCN(C(=O)/C=C/CN(C)C)C2)s1 (stereo not shown) [Example 17-64],0.001,0.02,0.021,0.002,0.005
CCOc1cc(C(=O)Nc2nc3cccc(C)c3n2C2CCCCN(C(=O)/C=C/CN(C)C)C2)ccn1 (stereo not shown) [Example 17-65],< 0.001,0.004,0.012,0.002,0.002
Cc1cccc2nc(NC(=O)c3ccc4ccccc4c3)n(C3CCCCN(C(=O)/C=C/CN(C)C)C3)c12 (stereo not shown) [Example 17-66],< 0.001,0.005,0.129,0.005,0.009
Cc1cccc2nc(NC(=O)c3ccnc(Cl)c3)n([C@@H]3CCCCN(C(=O)/C=C/CN(C)C)C3)c12 [Example 17-73],< 0.001,< 0.001,0.016,0.001,< 0.001
CC1=C(C(=O)N2CCCC[C@@H](n3c(NC(=O)c4ccnnc4)nc4cccc(C)c43)C2)S(=O)(=O)CCO1 [Example 17-88],0.04,0.39,8.4,0.158,0.209
Cc1cccc2nc(NC(=O)c3ccnnc3)n([C@@H]3CCCCN(C(=O)C4=COCCO4)C3)c12 [Example 17-89],2.32,1.01,0.7,0.46,7.5
C=C(CN1CCCCC1)C(=O)N1CCCC[C@@H](n2c(NC(=O)c3ccnnc3)nc3cccc(C)c32)C1 [Example 17-90],0.013,0.199,0.76,0.054,0.055
C=C(CN1CCCC1)C(=O)N1CCCC[C@@H](n2c(NC(=O)c3ccnnc3)nc3cccc(C)c32)C1 [Example 17-91],0.007,0.198,1.01,0.033,0.042
C=C(CN(CC)CC)C(=O)N1CCCC[C@@H](n2c(NC(=O)c3ccnnc3)nc3cccc(C)c32)C1 [Example 17-92],0.012,0.213,1.83,0.043,0.057
